Structures can show the parent of a compound that is named as a salt. Where two headings read alike, the source gives them in different places.
Legend:
MMP-9 = biological target: T1, MMP-9 (Homo sapiens, UniProt P14780); assay: In vitro MMP inhibition, Ki determination (fluorogenic substrate II); type: biochemical
T1 construct: made in house; host or cells: MMP-9-transfected HT1080 cells (spent media)
Protocol: Several hydroxamic acids and salts thereof were analyzed in in vitro assays to determine their ability to inhibit the MMP cleavage of peptide substrates. […] and IC50 constants were calculated from the assayed hydroxamic acid-MMP interactions.
Human recombinant MMP-1, MMP-2, MMP-9, MMP-13, and MMP-14 were used in this assay. All enzymes were prepared in Assignee's laboratories following usual laboratory procedures. Protocols for the preparation and use of these enzymes are available in the scientific literature. See, e.g., Enzyme Nomenclature (Academic Press, San Diego, Calif., 1992) (and the citations therein). See also, Freije et al., “Molecular cloning and expression of collagenase-3, a novel human matrix metalloproteinase produced by breast carcinomas,” J Biol. Chem., 269(24), 16766-16773 (1994).
The MMP-9 proenzyme was purified by gelatin Sepharose chromatography from spent media of MMP-9-transfected HT1080 cells provided by Dr. Howard Welgus of Washington University (St. Louis, Mo.).
All MMPs were activated using 4-aminophenylmercuric acetate (“APMA”, Sigma Chemical, St. Louis, Mo.) or trypsin. MMP-9 also was activated using human recombinant MMP-3 (purified in Assignee's laboratory following standard cloning and purification techniques).
Two fluorogenic, methoxycoumarin-containing polypeptide substrates were used in the MMP inhibition assays: [drawing 427] Here, “Dpa” is 3-(2,4-dinitrophenyl)-L-2,3-diaminopropionyl group, and “MCA” is 7-methoxycoumarin-4-yl acetyl. Substrate (I) was purchased from Baychem (Redwood City, Calif.), and substrate II was prepared Assignee's laboratory. Substrate I was used in the IC50 determination assays, while substrate II was used in the Ki determination assays. In the absence of MMP inhibitory activity, either substrate is cleaved at the Gly-Leu peptide bond. This cleavage separates the highly fluorogenic peptide from the 2,4-dinitrophenyl quencher, thus resulting in increase of fluorescent intensity.
The stock solutions of the assayed hydroxamic acids (or salts thereof) were prepared in 1% dimethyl sulfoxide (DMSO). These stock solutions were diluted in Buffer A (100 mM Tris-HCl, 100 mM NaCl, 10 mM CaCl2, 0.05% polyoxyethylene 23 lauryl ether, pH 7.5) to obtain solutions with different hydroxamic acid concentrations, i.e., assay solutions with different concentrations of the assayed MMP inhibitory compound. The experiment controls contained the same amount of Buffer A/DMSO as the assayed sample, but contained no hydroxamic acid (or salt thereof).
The assays from which the Ki determinations were made were performed as follows. The assayed hydroxamic acid samples were incubated in separate wells of untreated white polystyrene plates (Nunc Nalgene International, Rochester, N.Y.), and analyzed on a Tecan SpectraFlour Plus plate reader. The excitation wavelength was 330 nm, and the emission wavelength—420 nm. All samples (assayed hydroxamic acids and controls) were incubated in separate plate wells at room temperature for 1 hr in the presence of 4 μM of MMP substrate (II). In the absence of MMP inhibitory activity, substrate II was cleaved at the Gly-Leu bond resulting in an increase of relative fluorescence. Inhibition was observed as a reduced rate of this increase in relative fluorescence. The various hydroxamic acids were analyzed using a single low enzyme concentration with a single substrate concentration fixed at or below the Km. This protocol is a modification of method by Knight et al., FEBS Lett., 296(3), 263-266 (1992). Apparent inhibitory constants were determined by non-linear regression of reaction velocity as a function of inhibitor and enzyme concentration using Morrison's equation, as described by Kuzmic, Anal. Biochem. 286, 45-50 (2000). Modifications were made in the non-linear regression method to allow a common control reaction rate and effective enzyme concentration to be shared between all dose-response relationships on a given assay plate. […]

MMP-13 = biological target: T2, MMP-13 (Homo sapiens, UniProt P45452); assay: as above; type: biochemical
T2 construct: made in house; host or cells: baculovirus / insect cells
Summary of the method: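 Ki determined with human recombinant MMP-13, baculovirus-expressed as proenzyme and activated with APMA. Fluorogenic MCA/Dpa substrate II at 4 μM (at or below Km) with low enzyme in Tris buffer pH 7.5 with CaCl2. Incubation was 1 h at room temperature, with fluorescence read at 330/420 nm.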

[1] = human recombinant enzyme, 4 μM substrate II, room temperature, 1 hr
[2] = human recombinant enzyme, 4 μM substrate II, room temperature, 1 hr, read-out: MMP-13 Ki
[3] = value not in parenthesis, read-out: MMP-13 Ki

T1 sequence (P14780 107-707 limits assumed): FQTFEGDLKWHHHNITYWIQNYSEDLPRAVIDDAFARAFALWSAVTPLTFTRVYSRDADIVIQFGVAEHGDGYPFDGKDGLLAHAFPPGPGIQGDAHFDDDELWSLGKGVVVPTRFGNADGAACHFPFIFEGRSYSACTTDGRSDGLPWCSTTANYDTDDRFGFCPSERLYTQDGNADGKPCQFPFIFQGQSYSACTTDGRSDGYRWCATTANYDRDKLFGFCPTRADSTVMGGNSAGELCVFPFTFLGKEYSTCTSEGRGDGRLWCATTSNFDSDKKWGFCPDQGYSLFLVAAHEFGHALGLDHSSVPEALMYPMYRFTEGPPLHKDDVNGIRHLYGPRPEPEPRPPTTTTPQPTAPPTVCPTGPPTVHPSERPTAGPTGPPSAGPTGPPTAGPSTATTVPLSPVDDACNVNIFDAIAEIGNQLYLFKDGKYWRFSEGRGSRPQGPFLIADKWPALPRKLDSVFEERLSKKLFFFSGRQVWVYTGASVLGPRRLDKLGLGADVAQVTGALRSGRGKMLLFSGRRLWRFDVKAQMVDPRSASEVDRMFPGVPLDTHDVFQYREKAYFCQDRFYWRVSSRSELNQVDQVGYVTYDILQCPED

Row | Structure (SMILES) | Ki (MMP-9; [1]) [nM] | Ki (MMP-13; [2]) [nM] | Ki (MMP-9; value not in parenthesis) [nM] | Ki (MMP-13; [3]) [nM] | Ki (MMP-13; MMP-13 Ki, human recombinant enzyme, 4 μM substrate II, room temperature, 1 hr) [nM]
1 | CCCCc1ccc(C2CCN(S(=O)(=O)C3(C(=O)NO)CCOCC3)CC2)s1 [Example 19, 4-{[4-(5-butylthien-2-yl)piperidin-1-yl]sulfonyl}-N-hydroxytetrahydro-2H-pyran-4-carboxamide] | 0.5 | 5.47 |  |  | 
2 | CCCCOc1ccc(N2CCN(S(=O)(=O)C3(C(=O)NO)CCN(c4ccc(C)nc4)CC3)CC2)cc1 [Example 131] |  |  | 3.03 | 0.621 | 
3 | O=C(NO)C1(S(=O)(=O)N2CCN(c3ccc(OCCCC(F)(F)F)cc3)CC2)CCN(c2cnccn2)CC1 [Example 112] |  |  | 15.4 | 0.27 | 
4 | CCCCOc1ccc(N2CCN(S(=O)(=O)C3(C(=O)NO)CCN(c4cccnc4)CC3)CC2)cc1 [Example 154] |  |  | 2.15 | 0.561 | 
5 | CCCCOc1ccc(N2CCN(S(=O)(=O)C3(C(=O)NO)CCN4CCCC4C3)CC2)cc1F (stereo not drawn) [Example 126] |  |  | 19 | 7.06 | 
6 | CCCCc1ccc(C2CCN(S(=O)(=O)C3(C(=O)NO)CCN(C4CC4)CC3)CC2)nc1 [Example 24, 4-{[4-(5-butylpyridin-2-yl)piperidin-1-yl]sulfonyl}-1-cyclopropyl-N-hydroxypiperidine-4-carboxamide Hydrochloride] | 0.12 | 0.54 |  |  | 
7 | CCCCOc1ccc(N2CCN(S(=O)(=O)C3(C(=O)NO)CCN(c4ncc(CC)cn4)CC3)CC2)cc1 [Example 155] |  |  | 9.86 | 3.36 | 
8 | O=C(c1cccnc1)N1CCC(C(=O)NO)(S(=O)(=O)N2CCN(c3ccc(OCCCC(F)(F)F)cc3)CC2)CC1 [Example 122] |  |  | 0.01 | 0.03 | 
9 | CCCCOc1ccc(N2CCN(S(=O)(=O)C3(C(=O)NO)CCN(C(=S)N(C)C)CC3)CC2)cc1 [Example 123] |  |  | 2.72 | 0.74 | 

The remaining lines, values ahead:

Row | Ki (MMP-9; [1]) [nM] | Ki (MMP-13; [2]) [nM] | Ki (MMP-9; value not in parenthesis) [nM] | Ki (MMP-13; [3]) [nM] | Ki (MMP-13; MMP-13 Ki, human recombinant enzyme, 4 μM substrate II, room temperature, 1 hr) [nM] | Structure (SMILES)
10 |  |  | 153 | 22.4 |  | O=C(NO)C1(S(=O)(=O)N2CCN(c3ncccn3)CC2)CCOCC1 [Example 107]
11 | 0.54 | 0.5 |  |  |  | O=C(NO)C1(S(=O)(=O)N2CCC(c3cnc(OCC(F)(F)C(F)(F)F)cn3)CC2)CCOCC1 [Example 27]
12 |  |  | 6.1 | 0.099 |  | O=C(NO)C1(S(=O)(=O)N2CCN(c3ccc(OCCCC(F)(F)F)cc3)CC2)CCN(C2CC2)CC1 [Example 153]
13 | 1.01 | 0.328 |  |  |  | O=C(NO)C1(S(=O)(=O)N2CCN(c3ccc(CCC(F)(F)C(F)(F)F)cc3)CC2)CCOCC1 [Example 17, N-hydroxy-4-({4-[4-(3,3,4,4,4-pentafluorobutyl)phenyl]piperazin-1-yl}sulfonyl)tetrahydro-2H-pyran-4-carboxamide Hydrochloride]
14 |  |  | 10.5 | 3.48 |  | O=C(NO)C1(S(=O)(=O)N2CCN(c3ncc(Br)cn3)CC2)CCOCC1 [Example 103]
15 |  |  | 235 | 27.2 |  | O=C(NO)C1(S(=O)(=O)N2CCN(c3ncccn3)CC2)CCOCC1 [Example 106]
16 | 20 | 2.67 |  |  |  | COCCOc1ccc(N2CCN(S(=O)(=O)C3(C(=O)NO)CCOCC3)CC2)cc1 [Example 14, N-hydroxy-4-({4-[4-(2-methoxyethoxy)phenyl]piperazin-1-yl}sulfonyl)tetrahydro-2H-pyran-4-carboxamide Hydrochloride]
17 | 0.739 | 0.216 |  |  |  | O=C(NO)C1(S(=O)(=O)N2CCN(c3ccc(OC(F)(F)C(F)F)cc3)CC2)CCOCC1 [Example 4, 4-({4-[4-(1,1,2,2-tetrafluoroethoxy)phenyl]piperazinyl}sulfonyl)perhydro-2H-pyran-4-carbohydroxamic Acid]
18 | 0.696 |  |  |  | 1.82 | CCCCc1cnc(N2CCN(S(=O)(=O)C3(C(=O)NO)CCOCC3)CC2)cn1 [Example 1, 4-{[4-(5-butylpyrazin-2-yl)piperazin-1-yl]sulfonyl}-N-hydroxytetrahydro-2H-pyran-4-carboxamide Dihydrochloride]
19 | 0.287 | 0.27 |  |  |  | CCCCCc1ccc(N2CCN(S(=O)(=O)C3(C(=O)NO)CCN(CCOC)CC3)CC2)cc1 [Example 6, N-Hydroxy-1-(2-methoxyethyl)-4-{[4-(4-pentylphenyl)piperazin-1-yl]sulfonyl}piperidine-4-carboxamide Dihydrochloride]
20 |  |  | 2.64 | 0.748 |  | CCc1ccc(N2CCN(S(=O)(=O)C3(C(=O)NO)CCOCC3)CC2)nc1 [Example 114]
21 |  |  | 401 | 478 |  | COc1ccc(N2CCN(S(=O)(=O)C3(C(=O)NO)CCOCC3)CC2)nc1 [Example 108]

Source: patent publication US20050209278A1, “Piperidinyl- and piperazinyl-sulfonylmethyl hydroxamic acids and their use as protease inhibitors” (priority 2002, published 2005)
